Results: paper PMC12749748, “Chemically-induced degradation of the endoplasmic-reticulum stress sensor IRE1 by a VHL-recruiting chimera” (Nature Communications, 2025)

Assays:
Colo201 cells = experiment: Incucyte cell confluency, Colo201 cells; format: cell-based; conditions: Colo201 shIRE1 cells, titration
Protocol: For non-adherent AMO1, KMS27, and OPM2 cells, cells were plated at 5000 cells/well in ultra-low attachment (ULA) 96-well plates (Costar, #7007) and centrifuged at 600 × g for 5 min for spheroid formation. For adherent U2OS and Colo201 cells, 2000 cells/well were seeded in a clear flat-bottom 96-well plate (Costar, #3595). Treatments were added at the time of cell seeding, and cells were cultured in complete RPMI media to a final volume of 200 µL/well. Cultures were maintained at 37 °C throughout the duration of the experiment. Cell confluency was tracked using the Incucyte live-cell imaging system (Sartorius S3). Picture frames were captured every 4 h with a 4× objective, and cell confluency (%) from the total well area as a function of time was calculated using the Incucyte software (version 2023 A Rev2).

[1] = system: kinases inhibited by 90% or more; experiment: Immunoblot of kinases inhibited by 90% or more, for depletion in AMO1 and KMS27 cells; format: cell-based; conditions: AMO1 and KMS27 cells, 0.1, 0.3 and 1 µM, 4 h
Protocol: Cells were lysed in buffer containing 20 mM HEPES 7.2, 150 mM NaCl, and 1% Triton X-100, supplemented with fresh protease and phosphatase inhibitors (Invitrogen, #78440), cleared by centrifugation at 12,000 × g for 10 min, and analyzed by BCA protein assay (Thermo Fisher Scientific, #23227). Equal protein amounts were loaded, separated by SDS-PAGE, electrotransferred to nitrocellulose membranes using the iBLOT2 system (Invitrogen), and blocked in 5% nonfat milk solution for 60 min. Membranes were probed with primary antibodies at 1:1000 dilution in 5% milk at 4 °C overnight. Signal was detected using appropriate horseradish peroxidase (HRP)-conjugated secondary antibodies at 1:10,000 in 5% milk at room temperature for 1–2 h. Bands were visualized by the Azure 600 western blot imaging system (Azure Biosystems). For in vitro ubiquitination assays performed with Me-Ub, bands were visualized by the Odyssey CLx Imager (LI‑COR) after incubating the blots with the IRDye 800CW (LI-COR) secondary antibodies at 1:10,000 in Intercept Blocking Buffer (LI-COR) at room temperature for 1–2 h. […]
The kinome selectivity of G6374 was assessed at 1 μM for 1 h versus a panel of 220 human kinases (SelectScreen Kinase Profiling Services, Thermo Fisher Scientific). […]

VCB (VHL:EloC:EloB) = VCB (VHL:EloC:EloB) (Homo sapiens, UniProt P40337); experiment: Surface plasmon resonance, binary interaction with VCB; format: binding; conditions: SPR, immobilised VCB, 20 °C, 1 to 1 kinetic model
Protocol: All SPR experiments in this paper were recorded on a Biacore S200 instrument; all protein captures and data collection were at 20 °C.
For binary interactions with G6374: a Xantec SAHC 200 M (streptavidin) chip was inserted into the instrument and primed into running buffer [50 mM HEPES (pH 7.4), 150 mM NaCl, 0.001% Tween 20, 0.2% PEG3350, 0.25 mM TCEP, and 2% DMSO]. Biotinylated human IRE1.KR protein was captured on FC2 to 2-4000 RU, biotinylated VHL in complex with Elongin B (VHL/EloB) was captured on FC4 to 1-2000 RU, data were collected, and all referenced to FC1. Affinity for G6374 was measured using a titration series, injected from low to high with an 8-point, 2-fold dilution dose response with a top concentration of 0.5 μM in both single cycle (single cycle kinetics (SCK)) and multi cycle kinetics (MCK) formats. For MCK experiments, an association time of 45 s and a dissociation time of 200 s with a flow rate of 50 μL/min. For SCK experiments, an association time of 45 s and a dissociation time of 2000 s with a flow rate of 50 μL/min were used. All data were analyzed using Insight software (Cytiva) using a 1 to 1 kinetic binding model.

Chain of VCB (VHL:EloC:EloB) (P40337 whole entry): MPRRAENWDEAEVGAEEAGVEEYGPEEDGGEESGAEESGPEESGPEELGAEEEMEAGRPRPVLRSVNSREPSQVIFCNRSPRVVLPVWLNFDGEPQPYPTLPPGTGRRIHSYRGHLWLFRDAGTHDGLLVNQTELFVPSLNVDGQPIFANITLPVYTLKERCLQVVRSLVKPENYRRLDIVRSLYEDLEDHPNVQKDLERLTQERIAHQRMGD
Chain of VCB (VHL:EloC:EloB) (Q15370 whole entry partner): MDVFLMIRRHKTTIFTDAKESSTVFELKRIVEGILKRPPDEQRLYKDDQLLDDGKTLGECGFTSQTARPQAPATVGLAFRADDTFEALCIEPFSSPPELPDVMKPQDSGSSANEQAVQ
Chain of VCB (VHL:EloC:EloB) (Q15369 whole entry partner): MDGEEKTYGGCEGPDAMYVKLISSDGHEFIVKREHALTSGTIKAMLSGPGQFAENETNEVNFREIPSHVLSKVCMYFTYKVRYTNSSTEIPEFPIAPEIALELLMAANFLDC

Cc1ncsc1-c1ccc(CNC(=O)[C@@H]2C[C@@H](O)CN2C(=O)[C@@H](NC(=O)CCCCN2CCN([C@H]3CC[C@H](Nc4ncc5ccc(=O)n(C(C)C)c5n4)CC3)CC2)C(C)(C)C)cc1 [G6374]
proliferation rate (cell confluency) (Colo201 cells): did not affect the proliferation rate
depletion of the other eight kinases (JNK3 not detectable) [1]: not appreciably depleted
Kd (VCB (VHL:EloC:EloB)): 0.0902 µM
kd (VCB (VHL:EloC:EloB)): 0.0477 s⁻¹
kon (VCB (VHL:EloC:EloB); read-out: ka): 514000 M⁻¹ s⁻¹
